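Tested at 5 concentrations; 48 h exposure; 96-well plates; endpoints linearly interpolated, else capped at highest concentration. Definition used: TGI = concentration required for complete inhibition of growth.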 Where a SMILES comes first, the peptide text is derived from it. [ ]: non-standard residue; d: D form. The star is where a group is joined. Phe(4-NO2) = N[CH](Cc1ccc([N+](=O)[O-])cc1)C(=O)O; Boc = CC(C)(C)OC(=O)*; OtBu = CC(C)(C)O*
Columns and labels:
Test in all cases: NCI-60 cell line screen, 48 h
OVCAR-5 ovarian = test system: OVCAR-5 ovarian
A498 renal = test system: A498 renal
SNB-19 CNS = test system: SNB-19 CNS
UO-31 renal = test system: UO-31 renal
SK-OV-3 ovarian = test system: SK-OV-3 ovarian
IGROV1 ovarian = test system: IGROV1 ovarian
K-562 leukemia = test system: K-562 leukemia
HOP-62 NSCLC = test system: HOP-62 NSCLC
COLO 205 colon = test system: COLO 205 colon
PC-3 prostate = test system: PC-3 prostate
HCT-116 colon = test system: HCT-116 colon
U251 CNS = test system: U251 CNS
SNB-75 CNS = test system: SNB-75 CNS
MOLT-4 leukemia = test system: MOLT-4 leukemia
SK-MEL-5 melanoma = test system: SK-MEL-5 melanoma
NCI-H23 lung = test system: NCI-H23 lung
NCI/ADR-RES ovarian = test system: NCI/ADR-RES ovarian
M14 melanoma = test system: M14 melanoma
RPMI-8226 leukemia = test system: RPMI-8226 leukemia
NCI-H522 lung = test system: NCI-H522 lung
HOP-92 NSCLC = test system: HOP-92 NSCLC
HCT-15 colon = test system: HCT-15 colon
HL-60(TB) leukemia = test system: HL-60(TB) leukemia
RXF 393 renal = test system: RXF 393 renal
MDA-MB-231 breast = test system: MDA-MB-231 breast
OVCAR-3 ovarian = test system: OVCAR-3 ovarian
DU-145 prostate = test system: DU-145 prostate
SK-MEL-28 melanoma = test system: SK-MEL-28 melanoma
SK-MEL-2 melanoma = test system: SK-MEL-2 melanoma
HCC-2998 colon = test system: HCC-2998 colon
T-47D breast = test system: T-47D breast
SR leukemia = test system: SR leukemia
KM12 colon = test system: KM12 colon
MALME-3M melanoma = test system: MALME-3M melanoma
CAKI-1 renal = test system: CAKI-1 renal
MDA-N = test system: MDA-N
UACC-62 melanoma = test system: UACC-62 melanoma
MDA-MB-435 = test system: MDA-MB-435
CCRF-CEM leukemia = test system: CCRF-CEM leukemia
MCF7 breast = test system: MCF7 breast
NCI-H226 lung = test system: NCI-H226 lung
HT29 colon = test system: HT29 colon
OVCAR-8 ovarian = test system: OVCAR-8 ovarian
NCI-H460 lung = test system: NCI-H460 lung
SF-295 CNS = test system: SF-295 CNS
SN12C renal = test system: SN12C renal
TK-10 renal = test system: TK-10 renal
SF-268 CNS = test system: SF-268 CNS
SF-539 CNS = test system: SF-539 CNS
A549 NSCLC = test system: A549 NSCLC
SW-620 colon = test system: SW-620 colon
OVCAR-4 ovarian = test system: OVCAR-4 ovarian
LOX IMVI melanoma = test system: LOX IMVI melanoma
ACHN renal = test system: ACHN renal
786-0 renal = test system: 786-0 renal
UACC-257 melanoma = test system: UACC-257 melanoma
EKVX NSCLC = test system: EKVX NSCLC

`O=C(N=Nc1ccc(Br)cc1)NNc1ccc(Br)cc1` was tested, and the TGI (OVCAR-5 ovarian) was 57.1 µM, the TGI (A498 renal) was over 100 µM and the TGI (SNB-19 CNS) was over 100 µM. The TGI (UO-31 renal) was 65.2 µM, the TGI (SK-OV-3 ovarian) was 74 µM and the TGI (IGROV1 ovarian) was 64.7 µM. It also gave a TGI (K-562 leukemia) of 25 µM, a TGI (HOP-62 NSCLC) of 32.6 µM and a TGI (COLO 205 colon) of 48.9 µM. The TGI (PC-3 prostate) was 31.9 µM, the TGI (HCT-116 colon) was 31.3 µM and the TGI (U251 CNS) was 34.7 µM. The TGI (SNB-75 CNS) was 61.9 µM, the TGI (MOLT-4 leukemia) was 26 µM and the TGI (SK-MEL-5 melanoma) was 26.9 µM. For the same molecule, the TGI (NCI-H23 lung) was 68.9 µM, the TGI (NCI/ADR-RES ovarian) was 43.3 µM and the TGI (M14 melanoma) was 31.8 µM. It also gave a TGI (RPMI-8226 leukemia) of 78 µM, a TGI (NCI-H522 lung) of 31 µM and a TGI (HOP-92 NSCLC) of 30.7 µM. The TGI (HCT-15 colon) was 58.2 µM, the TGI (HL-60(TB) leukemia) was over 100 µM and the TGI (RXF 393 renal) was 28.7 µM. The TGI (MDA-MB-231 breast) was 47.2 µM, the TGI (OVCAR-3 ovarian) was 30.5 µM and the TGI (DU-145 prostate) was over 100 µM. It also gave a TGI (SK-MEL-28 melanoma) of 64.5 µM, a TGI (SK-MEL-2 melanoma) of 37.9 µM and a TGI (HCC-2998 colon) of 55.7 µM. The TGI (T-47D breast) was over 100 µM, the TGI (SR leukemia) was over 100 µM and the TGI (KM12 colon) was 35.1 µM. The TGI (MALME-3M melanoma) was 87.1 µM, the TGI (CAKI-1 renal) was 52.9 µM and the TGI (MDA-N) was 64.7 µM. The TGI (UACC-62 melanoma) was 27.2 µM, the TGI (MDA-MB-435) was 46.1 µM and the TGI (CCRF-CEM leukemia) was 18.2 µM. For the same molecule, the TGI (MCF7 breast) was 40.8 µM, the TGI (NCI-H226 lung) was 47.1 µM and the TGI (HT29 colon) was 33.1 µM. For the same molecule, the TGI (OVCAR-8 ovarian) was over 100 µM, the TGI (NCI-H460 lung) was 44 µM and the TGI (SF-295 CNS) was over 100 µM.

Molecule `CC(=O)NC(CCC(=O)OC(C)(C)C)C(=O)NC(CCC(=O)OC(C)(C)C)C(=O)NC(Cc1ccc([N+](=O)[O-])cc1)C(=O)NC(CCCCNC(=O)OC(C)(C)C)C(=O)NC(CCCCNC(=O)OC(C)(C)C)C(=O)NCC(=O)O` (configuration not stated) (Ac-E(OtBu)E(OtBu)[Phe(4-NO2)]K(Boc)K(Boc)G-OH; configuration not given here) has a TGI (OVCAR-5 ovarian) of over 100 µM, a TGI (SN12C renal) of over 100 µM and a TGI (SNB-19 CNS) of over 100 µM. It also gave a TGI (UO-31 renal) of over 100 µM, a TGI (SK-OV-3 ovarian) of over 100 µM and a TGI (TK-10 renal) of over 100 µM. For the same molecule, the TGI (IGROV1 ovarian) was over 100 µM, the TGI (SF-268 CNS) was over 100 µM and the TGI (K-562 leukemia) was over 100 µM. The TGI (HOP-62 NSCLC) was over 100 µM, the TGI (COLO 205 colon) was over 100 µM and the TGI (PC-3 prostate) was over 100 µM. It also gave a TGI (HCT-116 colon) of over 100 µM, a TGI (U251 CNS) of over 100 µM and a TGI (SNB-75 CNS) of over 100 µM. For the same molecule, the TGI (MOLT-4 leukemia) was over 100 µM, the TGI (SK-MEL-5 melanoma) was over 100 µM and the TGI (SF-539 CNS) was over 100 µM. For the same molecule, the TGI (NCI-H23 lung) was over 100 µM, the TGI (NCI/ADR-RES ovarian) was over 100 µM and the TGI (M14 melanoma) was 53.5 µM. It also gave a TGI (RPMI-8226 leukemia) of over 100 µM, a TGI (NCI-H522 lung) of over 100 µM and a TGI (HOP-92 NSCLC) of over 100 µM. For the same molecule, the TGI (HCT-15 colon) was over 100 µM, the TGI (A549 NSCLC) was over 100 µM and the TGI (HL-60(TB) leukemia) was over 100 µM. It also gave a TGI (RXF 393 renal) of over 100 µM, a TGI (MDA-MB-231 breast) of over 100 µM and a TGI (SW-620 colon) of over 100 µM. It also gave a TGI (OVCAR-3 ovarian) of over 100 µM, a TGI (DU-145 prostate) of over 100 µM and a TGI (OVCAR-4 ovarian) of over 100 µM. It also gave a TGI (SK-MEL-28 melanoma) of over 100 µM, a TGI (SK-MEL-2 melanoma) of over 100 µM and a TGI (HCC-2998 colon) of over 100 µM. For the same molecule, the TGI (T-47D breast) was over 100 µM, the TGI (SR leukemia) was over 100 µM and the TGI (KM12 colon) was over 100 µM. It also gave a TGI (MALME-3M melanoma) of over 100 µM, a TGI (CAKI-1 renal) of over 100 µM and a TGI (MDA-N) of over 100 µM. It also gave a TGI (UACC-62 melanoma) of over 100 µM, a TGI (MDA-MB-435) of over 100 µM and a TGI (CCRF-CEM leukemia) of over 100 µM. For the same molecule, the TGI (MCF7 breast) was over 100 µM, the TGI (NCI-H226 lung) was over 100 µM and the TGI (LOX IMVI melanoma) was over 100 µM. The TGI (HT29 colon) was over 100 µM, the TGI (ACHN renal) was over 100 µM and the TGI (OVCAR-8 ovarian) was over 100 µM. For the same molecule, the TGI (786-0 renal) was over 100 µM, the TGI (UACC-257 melanoma) was over 100 µM and the TGI (NCI-H460 lung) was over 100 µM. The TGI (SF-295 CNS) was over 100 µM and the TGI (EKVX NSCLC) was over 100 µM.

For `COc1ccc2cc(C(=O)Nc3ccc(O)c(C(=O)O)c3)ccc2c1OC`, the TGI (OVCAR-5 ovarian) was over 100 µM, the TGI (SN12C renal) was over 100 µM and the TGI (SNB-19 CNS) was over 100 µM. It also gave a TGI (UO-31 renal) of over 100 µM, a TGI (SK-OV-3 ovarian) of over 100 µM and a TGI (TK-10 renal) of over 100 µM. The TGI (IGROV1 ovarian) was over 100 µM, the TGI (SF-268 CNS) was over 100 µM and the TGI (K-562 leukemia) was over 100 µM. For the same molecule, the TGI (HOP-62 NSCLC) was over 100 µM, the TGI (PC-3 prostate) was over 100 µM and the TGI (HCT-116 colon) was over 100 µM. For the same molecule, the TGI (U251 CNS) was over 100 µM, the TGI (SNB-75 CNS) was over 100 µM and the TGI (MOLT-4 leukemia) was over 100 µM. It also gave a TGI (SK-MEL-5 melanoma) of over 100 µM, a TGI (SF-539 CNS) of over 100 µM and a TGI (NCI-H23 lung) of over 100 µM. For the same molecule, the TGI (NCI/ADR-RES ovarian) was over 100 µM, the TGI (M14 melanoma) was over 100 µM and the TGI (RPMI-8226 leukemia) was over 100 µM. The TGI (NCI-H522 lung) was over 100 µM, the TGI (HCT-15 colon) was over 100 µM and the TGI (HL-60(TB) leukemia) was over 100 µM. It also gave a TGI (MDA-MB-231 breast) of over 100 µM, a TGI (SW-620 colon) of over 100 µM and a TGI (OVCAR-3 ovarian) of over 100 µM. The TGI (DU-145 prostate) was over 100 µM, the TGI (OVCAR-4 ovarian) was over 100 µM and the TGI (SK-MEL-28 melanoma) was over 100 µM. The TGI (SK-MEL-2 melanoma) was over 100 µM, the TGI (HCC-2998 colon) was over 100 µM and the TGI (T-47D breast) was over 100 µM. It also gave a TGI (SR leukemia) of over 100 µM, a TGI (KM12 colon) of over 100 µM and a TGI (MALME-3M melanoma) of over 100 µM. For the same molecule, the TGI (CAKI-1 renal) was over 100 µM, the TGI (MDA-N) was over 100 µM and the TGI (UACC-62 melanoma) was over 100 µM. It also gave a TGI (MDA-MB-435) of over 100 µM, a TGI (CCRF-CEM leukemia) of over 100 µM and a TGI (MCF7 breast) of over 100 µM. For the same molecule, the TGI (NCI-H226 lung) was over 100 µM, the TGI (LOX IMVI melanoma) was over 100 µM and the TGI (HT29 colon) was over 100 µM. The TGI (ACHN renal) was over 100 µM, the TGI (OVCAR-8 ovarian) was over 100 µM and the TGI (786-0 renal) was over 100 µM. It also gave a TGI (UACC-257 melanoma) of over 100 µM, a TGI (NCI-H460 lung) of over 100 µM and a TGI (EKVX NSCLC) of over 100 µM.
